Experimental data: patent publication US20210206817A1, “Metabolically Stable Apelin Analogs in the Treatment of Disease Mediated by the Apelin Receptor” (priority 2014, published 2021)
“And” between values parts separate entries of the source, which are not always exact repeats. Identical values can stand only once. Like-named read-outs stand apart in the source and are kept apart here.

Experiments:
rat apelin receptor-EGFP [1] = molecular target: T1, rat apelin receptor-EGFP (Rattus norvegicus, UniProt Q9JHG3); experiment: ERK1/2 phosphorylation (Alphascreen); format: cell-based; details: Table 7; read-out: ERK1/2 phosphorylation EC50
T1 construct: expressed in transfected cells
T1 sequence (Q9JHG3 1-377): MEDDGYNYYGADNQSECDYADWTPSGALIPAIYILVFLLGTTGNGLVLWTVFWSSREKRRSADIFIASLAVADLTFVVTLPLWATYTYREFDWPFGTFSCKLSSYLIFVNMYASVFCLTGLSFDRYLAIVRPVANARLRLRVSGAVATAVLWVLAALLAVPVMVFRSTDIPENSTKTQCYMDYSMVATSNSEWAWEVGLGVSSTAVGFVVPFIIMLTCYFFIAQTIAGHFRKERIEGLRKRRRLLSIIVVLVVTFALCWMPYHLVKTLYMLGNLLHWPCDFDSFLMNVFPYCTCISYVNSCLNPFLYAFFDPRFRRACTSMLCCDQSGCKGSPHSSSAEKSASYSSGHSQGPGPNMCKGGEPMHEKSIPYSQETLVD
From the text: ERK1/2 phosphorylation was then monitored by Alphascreen technology.

[2] = test system: anaesthesized normotensive Wistar rats; experiment: Arterial blood pressure after i.v. injection; format: in vivo, rat
Experimental: The resulting solution was administered to the rats via a catheter inserted into the right femoral vein, and was immediately followed by 0.2 ml Krebs buffer alone to flush the venous catheter. An additional catheter was inserted into the right femoral artery, as previously described (47), for the monitoring of mean arterial blood pressure (MBP) as previously described (48). The arterial catheter was connected to a COBE CDX III pressure transducer (Phymep, Paris, France) linked to the Maclab system (Phymep, Paris, France). HR measurement was triggered by the blood pressure signal. BP was continuously recorded throughout the experiment. […] Mean AUC for each group were then calculated. Unpaired Student's t test was used to determine whether BP observed in response to substances administered […].) has statistically significant difference.

[3] = test system: water-deprived or euhydrated mice; details: i.c.v., Iturrioz 2010; cited from earlier work
[4] = test system: isolated perfused rat heart; experiment: Isolated perfused rat heart, cardiac contractility
Experimental: Animals were anesthetized with pentobarbital sodium (50 mg/kg intraperitoneally). Heparin (200 IU/kg) was administrated into the femoral vein. Hearts were excised quickly and arrested in ice-cold Krebs-Henseleit solution containing (mM): […] […] Temperature was continuously monitored by a thermoprobe inserted into the right atrium. Hearts beat spontaneously under the sinus rhythm. […] The maximal rate of rise of left ventricular pressure (dP/dtmax) and heart rate were derived from left ventricular pressure. After 20-minutes equilibration period, the hearts were treated by drugs added to the perfusate with an infusion pump (Harvard Apparatus Pump 11) at rate of 100 μL/min for 30 minutes.

rat apelin receptor-EGFP [5] = molecular target: T1, rat apelin receptor-EGFP; experiment: Inhibition of forskolin-induced cAMP production (HTRF); format: cell-based
[6] = test system: rat glomerular arterioles precontracted by Angiotensin II (AngII); experiment: Diameter of glomerular arterioles precontracted by angiotensin II; details: L-NAME, NO synthase inhibitor
Experimental: The left kidney of male rats was prepared for microdissection of arterioles as previously described (44). Glomerular arterioles were isolated under stereomicroscopic observation. The afferent and muscular efferent arterioles were isolated with the glomerulus and identify according their morphology and localization in the inner renal cortex as previously described by Helou et al. […] For these experiments afferent and muscular efferent arterioles were microdissected attached to the gomeruli. […] Arteriolar diameters were measured with Adobe Photoshop CS. Diameters were measured on a distance equal to about 100 μm upstream of the glomerulus and triplicate were performed for each arteriole. Calibration was made using a stage micrometer. The average diameter for each experimental condition was used for statistical analysis.

rat apelin receptor-EGFP [7] = molecular target: T1, rat apelin receptor-EGFP; experiment: Apelin receptor-EGFP internalization, confocal microscopy; format: cell-based; details: Table 2; read-out: Internalization EC50
Experimental: The internalization assay was performed as described previously with CHO cells stably expressing the rat apelin receptor-EGFP (43). […] Cells were then mounted in Aquapolymount (Polysciences, Warrington, Pa., USA) for confocal microscopic analysis (Sec (42) for details).

[8] = test system: rat aortic rings precontracted by noradrenaline (NA); experiment: Isometric tension of aortic rings precontracted by noradrenaline
Experimental: The experiments were performed in rat aortic rings as previously described (39). […] The aortas were cleaned of excess connective tissue and fat and cut into rings of approximately 3-4 mm in length. Special care was taken to avoid damaging the luminal surface of the endothelium. […] One end of the aortic ring was connected to a tissue holder and the other to an isometric force transducer (EMKA Technologies, Paris, France). […] During equilibration period, the rings were washed every 30 min. Then, a first relaxation to acetylcholine (Ach, 10^−4 mol/L) was implemented to check the integrity or the absence of the endothelium in rings precontracted with NA (3×10^−8 mol/L). After rinsing with PSS to baseline tension, rings were equilibrated for 90 min. […] Each concentration of the drug was added at the maximal effect of the precedent concentration. The concentration-response curves were continuously recorded on a PC by means of IOX v 2.4 (EMKA Technologies, Paris) for further analysis (Datanalyst v2.1, EMKA Technologies, Paris).

[9] = Half-life in the blood circulation
[10] = test system: water-deprived or euhydrated mice; experiment: Plasma AVP after i.c.v. injection (RIA); format: in vivo, mouse; details: 1 μg i.c.v.
Experimental: Animals were killed 1 min after the injection, and trunk blood (0.5-1 ml) was collected in chilled tubes containing 50 μl of 0.3 M EDTA pH 7.4. […] RIA kit (Peninsula Laboratories International Inc, San Carlo, USA).

rat apelin receptor-EGFP [11] = molecular target: T1, rat apelin receptor-EGFP; experiment: [125I]pE13F radioligand binding on CHO membrane preparations
Experimental: Crude membrane preparation from CHO stably expressing the wild-type rat apelin receptor-EGFP, were prepared as previously described (39). […] The reaction was stopped by adding ice-cold binding buffer and filtered through glass microfiber filters (Whatman GF/C filters). Radioactivity was counted in Wizard 1470 Wallac gamma counter (Perkin Elmer, Turku, Finland).

[12] = Stability in mouse plasma at 37° C.; details: mouse, plasma
Experimental: For each compound, the stock solution (100 μM in water) was diluted in plasma to a final incubation concentration of 5 μM. The incubation at 37° C. was stopped respectively at to and 4 h by adding one volume of ice cold acetonitrile containing 0.1% trifluoroacetic acid. The sample was vortexed for 1 min and then centrifuged at 4° C. before LC-MS injection of the supernatant. Analyses were performed on a Kinetex RP-C18 column (2.6 μm, 100 Å, 50×4.6 mm) using a linear gradient (solvent B in solvent A, solvent A: water/0.05% TFA; solvent B: acetonitrile; flow rate of 2 mL·min^−1: detection at 358 nm). The percentage of remaining test compound relative to t0 was measured by monitoring the peak area of the chromatogram.

- EC50 (rat apelin receptor-EGFP [1]): 4.08 ± 1.17 nM
- IC50 (rat apelin receptor-EGFP [5]; 10^−6 M forskolin, read-out: IC50 inhibition of forskolin-induced cAMP production): 0.3 ± 0.2 nM
- IC50 (rat apelin receptor-EGFP [5]; Table 1, read-out: cAMP production IC50): 0.3 ± 0.1 nM
- IC50 (rat apelin receptor-EGFP [5]; Table 3, read-out: IC50 cAMP inhibition): 0.09 ± 0.01 nM
- EC50 (rat apelin receptor-EGFP [7]): 0.26 ± 0.09 nM
- half-life [9]: 0.667 min
- Ki (rat apelin receptor-EGFP [11]; Table 7, additional experiments vs Table 2, read-out: Binding affinity Ki): 0.06 ± 0.01 nM
- Ki (rat apelin receptor-EGFP [11]; [125I]pE13F binding I (nM), Table 2): 0.26 ± 0.12 nM
- Ki (rat apelin receptor-EGFP [11]; competition with [125I]pE13F, CHO membranes, read-out: Ki for the apelin receptor (affinity)): 0.3 ± 0.1 nM
- half-life at 5 μM [12]: 4.6 min
Compound: CSCC[C@H](NC(=O)[C@@H]1CCCN1C(=O)CNC(=O)[C@H](CCCCN)NC(=O)[C@H](Cc1c[nH]cn1)NC(=O)[C@H](CO)NC(=O)[C@H](CC(C)C)NC(=O)[C@H](CCCNC(=N)N)NC(=O)[C@@H]1CCCN1C(=O)[C@H](CCCNC(=N)N)NC(=O)[C@H](CCC(N)=O)NC(=O)[C@H](CCCNC(=N)N)NC(=O)[C@H](CCCNC(=N)N)NC(=O)[C@H](Cc1ccccc1)NC(=O)[C@@H](N)CCCCN)C(=O)N1CCC[C@H]1C(=O)N[C@@H](Cc1ccccc1)C(=O)O [K17F, reference compound]
- (maximal) decrease in mean arterial blood pressure ([2]; 15 nmol/rat i.v.): 7.8 mmHg and 5.4±1 mmHg
- time of maximal hypotensive response after injection ([2]; 15 nmol/rat i.v.): 1.2 min
- AUC of BP response ([2]; 100 nmol i.v., 15 minutes following injection): −13712±5271 mmHg·s
- decrease in MABP ([2]; 100 nmol/rat i.v.): 30.5 mmHg
- plateau value after maximal decrease ([2]; 100 nmol/rat i.v.): −12 mmHg
- time of return to plateau value ([2]; 100 nmol/rat i.v.): around 22 min
- Maximal decrease in BP (mmHg) ([2]; Table 5, 15 nmol i.v.): −7.8 mmHg
- Time For maximal BP decrease ([2]; Table 5, 15 nmol i.v.): 1.2 min
- Time to return to a plateau value ([2]; Table 5, 15 nmol i.v.): 4.2 min
- plateau value reached (in brackets) ([2]; Table 5, 15 nmol i.v.): baseline
- ED50 decrease of MABP ([2]; i.v. 5-100 nmol/rat): 30 nmol
- ED50 decrease in plasma AVP [3]: 56 pmol
- chronotropic effect [4]: No chronotropic effect
- effect on cardiac contractility (developed pressure) ([4]; K17F 0.01 to 300 nM, P92 200 and 400 nM): dose-dependently increased developed pressure
- vasorelaxant effect in the presence of L-NAME [6]: blocked
- vasorelaxing effect at maximal concentration ([8]; 100 μM): 93±3%
- maximal relaxant effect ([8]; precontraction 3×10^−6 M NA): 87±8%
- potency (pD2) of relaxation ([8]; precontraction 3×10^−6 M NA): 8.30±0.44
- plasma AVP levels ([10]; water-deprived mice 24 h, saline 425±46 pg/ml): 190 ± 27 pg/mL
- maximal decrease in AVP release ([10]; water-deprived mice): −94%
